Assays:
[1] = tested on: 23 different positive blood culture (PBC) samples comprising seven different species of bacteria; experiment: VITEK 2 GN81 automated AST of 0.5 McFarland inocula (present method vs traditional subculture); type: cell-based; conditions: for # I: number of isolates deemed intermediate (I); for # R: number of isolates deemed resistant (R); for # S: number of isolates deemed susceptible (S)
Experimental: (§1) Both the present method 1700 and traditional microbial subculturing techniques were used to prepare standardized 0.5 McFarland inocula for AST using Kirby-Bauer disk diffusion (see Table 1) and the automated VITEK2 GN81 AST platform (see Table 2).
(§2) Two sets of standardized 0.5 McFarland inocula were prepared from 23 different positive blood culture (PBC) samples comprising seven different species of bacteria. The 23 PBC samples included six samples of Escherichia coli (ECo), two samples of Enterobacter cloacae (ECl), three samples of Klebsiella pneumoniae (KPn), four samples of Klebsiella oxytoca (KOx), two samples of Citrobacter freundii (CFr), four samples of Serratia marcescens (SMa), and two samples of Klebsiella aerogenes (KAe).
(§3) The first set was prepared using the presently disclosed method 1700 (sample preparation time: between 60 minutes and 180 minutes) and the second set was prepared using traditional microbial subculturing techniques (sample preparation time: between 18 hours to 24 hours). The testing was conducted using the automated VITEK®2 GN81 AST platform (see Table 1) and manual Kirby-Bauer disk diffusion (see Table 2).

[2] = tested on: 23 different positive blood culture (PBC) samples comprising seven different species of bacteria; experiment: Kirby-Bauer disk diffusion AST of 0.5 McFarland inocula (present method vs traditional subculture); type: cell-based; conditions: for # I: number of isolates deemed intermediate (I); for # R: number of isolates deemed resistant (R); for # S: number of isolates deemed susceptible (S)
Excerpt: The standardized inoculum 1726 (e.g., the 0.5 McFarland inoculum) can then be used directly for antimicrobial susceptibility testing using manual disk diffusion or diluted further for automated AST platforms. For example, the standardized inoculum 1726 prepared using the method 1700 and system 1702 disclosed herein can be subjected to manual Kirby-Bauer disk diffusion AST or an automated AST platform such as the VITEK®2 platform.
as §1, §2, §3
In total, 296 minimum inhibitory concentrations (MICs) from the VITEK®2 GN81 platform and 224 zone sizes on disk diffusion were evaluated.

[3] = tested on: KOx harboring the KPC-3 gene; experiment: Disk diffusion AST, single isolate with major error; type: cell-based, Klebsiella oxytoca
Experimental: as §3

[4] = inoculum prepared using the present method 1700

Compound | # I [1] | # R [1] | # S [1] | # I [2] | # R [2] | # S [2] | susceptibility category ([3]; control 0.5 McFarland inoculum) | zone size ([3]; control 0.5 McFarland inoculum) [mm] | susceptibility category [3, 4] | zone size [3, 4] [mm]
Piperacillin-tazobactam | 1 | 3 | 5 | 1 | 3 | 14 |  |  |  | 
Trimethoprim-sulfamethoxazole | 0 | 6 | 11 |  |  |  |  |  |  | 
C[C@@H](O)[C@H]1C(=O)N2C(C(=O)O)=C(S[C@@H]3CN[C@H](C(=O)N(C)C)C3)[C@H](C)[C@H]12 [Meropenem] |  |  |  |  |  |  | susceptible | 23 | resistant | 19
Gentamicin | 1 | 2 | 20 | 1 | 2 | 20 |  |  |  | 
Amoxicillin-Clavulanic acid | 1 | 6 | 6 | 0 | 7 | 6 |  |  |  | 

Reference: patent publication US12139742B2, “Devices, systems, and methods for preparing a standardized inoculum for antimicrobial susceptibility testing” (Avails Medical, Inc., priority 2020, dated 2024)
